In patent publication US11000033B2, “Ketone or oxime compound, and herbicide” (NISSAN CHEMICAL CORPORATION, priority 2014, dated 2021):

Experiments:
Format in all cases: in vivo
rice = experiment: Test Example 4: effect on crop by soil treatment (symbol b); conditions: application herbicide amount 320 g/ha
How it was run: (§1)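 Plants grew in a 25° C. to 30° C. greenhouse after spot-sowing of seeds, including beet, rapeseed, wheat and rice, into sterilized diluvial soil under roughly 1.5 cm of cover soil.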

Alopecurus myosuroides = experiment: Test Example 5: herbicidal effect by foliage application, plastic box (symbol J); conditions: 320 g/ha, 3 weeks after application
How it was run: (§2)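 Post-emergence spray; diluvial soil (sterilized), ~1.5 cm seed cover; greenhouse 25–30° C; 14-day-old plants; water-diluted emulsion at predetermined dose; visual score at 3 wk post-treatment.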

beet = experiment: Test Example 5: effect on crop by foliage application, plastic box (symbol f); conditions: 320 g/ha, 3 weeks after application
How it was run: (§3)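 In a plastic box 7 cm deep filled with sterilized diluvial soil, seeds of crops and weeds such as Digitaria ciliaris, Avena fatua and Amaranthus retroflexus are sown in spots and covered with about 1.5 cm of soil before greenhouse growth at 25–30° C.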

[1] = test system: directly sowed rice plant; experiment: Test Example 3: effect on crop by foliage application, Wagner pot (symbol b); conditions: application herbicide amount 320 g/ha
How it was run: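 Wagner pot (1/10000 are), alluvial soil, submerged 0.1–0.5 cm; sown E. crus-galli var. crus-galli, L. chinensis, C. difformis, rice; greenhouse 25–30 °C.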

Apera spica-venti = experiment: Test Example 4: herbicidal effect by soil treatment (symbol L); conditions: application herbicide amount 320 g/ha
How it was run: (§4)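 Seeds were sown in sterilized diluvial soil, covered with about 1.5 cm of soil, and the soil surface was sprayed with a water-diluted emulsion of the compound at a predetermined rate. Plants grew in a greenhouse at 25° C. to 30° C.; effects were scored visually 3 weeks after application.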

Setaria viridis = experiment: Test Example 4: herbicidal effect by soil treatment (symbol G); conditions: application herbicide amount 320 g/ha
How it was run: as §4

Digitaria ciliaris = experiment: Test Example 5: herbicidal effect by foliage application, plastic box (symbol F); conditions: 320 g/ha, 3 weeks after application
How it was run: as §2

wheat [2] = experiment: Test Example 4: effect on crop by soil treatment (symbol e); conditions: application herbicide amount 320 g/ha
How it was run: as §1

Avena fatua = experiment: Test Example 5: herbicidal effect by foliage application, plastic box (symbol I); conditions: 320 g/ha, 3 weeks after application
How it was run: as §2

Monochoria vaginalis = experiment: Test Example 2: herbicidal activity, application during weed generation in submerged conditions (symbol C); conditions: Table 23; application herbicide amount 320 g/ha; grade 0-5 by criteria of Test Example 1
How it was run: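 Submerged alluvial soil (4 cm) sown with mixed seed; greenhouse 25–30° C. 1–2 leaf: diluted emulsion onto water surface, preset dose. Visual score, 3 wk.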

soybean = experiment: Test Example 5: effect on crop by foliage application, plastic box (symbol d); conditions: 320 g/ha, 3 weeks after application
How it was run: as §3

Amaranthus retroflexus = experiment: Test Example 4: herbicidal effect by soil treatment (symbol N); conditions: application herbicide amount 320 g/ha
How it was run: as §4

wheat [3] = experiment: Test Example 5: effect on crop by foliage application, plastic box (symbol e); conditions: 320 g/ha, 3 weeks after application
How it was run: as §3

Abutilon theophrasti = experiment: Test Example 4: herbicidal effect by soil treatment (symbol M); conditions: application herbicide amount 320 g/ha
How it was run: as §4

Cyperus difformis = experiment: Test Example 3: herbicidal effect by foliage application, Wagner pot (symbol E); conditions: application herbicide amount 320 g/ha
How it was run: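 Steps: fill pot with alluvial soil; add water to 0.1–0.5 cm depth; sow weed and rice seed; grow 14 days at 25–30 °C; spray diluted emulsion over the leaves; rate effect after 3 weeks.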

CON=C(C)CC1CC(OC(=O)C2(C)CC2(Cl)Cl)=C(c2c(C)cc(C)cc2C)C1=O (stereo not drawn) [1-036]
b (directly sowed rice plant) effect on crop grade (rice): 5 (Herbicidal ratio of 90% or more (almost completely withered)) | J: Alopecurus myosuroides, herbicidal effect grade (Alopecurus myosuroides): 5 (Herbicidal ratio of 90% or more (almost completely withered)) | f: beet, effect on crop grade (beet): 3 (Herbicidal ratio of 40% or higher and lower than 70%) | effect on crop b (directly sowed rice plant), grade 0-5 [1]: 5 (Herbicidal ratio of 90% or more (almost completely withered)) | L (Apera spica-venti) herbicidal effect grade (Apera spica-venti): 5 (Herbicidal ratio of 90% or more (almost completely withered)) | G (Setaria viridis) herbicidal effect grade (Setaria viridis): 5 (Herbicidal ratio of 90% or more (almost completely withered)) | F: Digitaria ciliaris, herbicidal effect grade (Digitaria ciliaris): 5 (Herbicidal ratio of 90% or more (almost completely withered)) | e (wheat) effect on crop grade (wheat [2]): 3 (Herbicidal ratio of 40% or higher and lower than 70%) | I: Avena fatua, herbicidal effect grade (Avena fatua): 5 (Herbicidal ratio of 90% or more (almost completely withered)) | Herbicidal effect grade, C: Monochoria vaginalis (Monochoria vaginalis): 2 (Herbicidal ratio of 20% or higher and lower than 40%) | d: soybean, effect on crop grade (soybean): 4 (Herbicidal ratio of 70% or higher and lower than 90%) | N (Amaranthus retroflexus) herbicidal effect grade (Amaranthus retroflexus): 5 (Herbicidal ratio of 90% or more (almost completely withered)) | e: wheat, effect on crop grade (wheat [3]): 5 (Herbicidal ratio of 90% or more (almost completely withered)) | M (Abutilon theophrasti) herbicidal effect grade (Abutilon theophrasti): 5 (Herbicidal ratio of 90% or more (almost completely withered)) | herbicidal effect on E, grade 0-5 (Cyperus difformis): 5 (Herbicidal ratio of 90% or more (almost completely withered))

CON=C(C)CC1CC(OC(=O)C(C)(C)F)=C(c2c(C)cc(C)cc2C)C1=O (stereo not drawn) [1-039]
b (directly sowed rice plant) effect on crop grade (rice): 5 (Herbicidal ratio of 90% or more (almost completely withered)) | J: Alopecurus myosuroides, herbicidal effect grade (Alopecurus myosuroides): 5 (Herbicidal ratio of 90% or more (almost completely withered)) | f: beet, effect on crop grade (beet): 3 (Herbicidal ratio of 40% or higher and lower than 70%) | effect on crop b (directly sowed rice plant), grade 0-5 [1]: 5 (Herbicidal ratio of 90% or more (almost completely withered)) | L (Apera spica-venti) herbicidal effect grade (Apera spica-venti): 5 (Herbicidal ratio of 90% or more (almost completely withered)) | G (Setaria viridis) herbicidal effect grade (Setaria viridis): 5 (Herbicidal ratio of 90% or more (almost completely withered)) | F: Digitaria ciliaris, herbicidal effect grade (Digitaria ciliaris): 5 (Herbicidal ratio of 90% or more (almost completely withered)) | e (wheat) effect on crop grade (wheat [2]): 4 (Herbicidal ratio of 70% or higher and lower than 90%) | I: Avena fatua, herbicidal effect grade (Avena fatua): 5 (Herbicidal ratio of 90% or more (almost completely withered)) | Herbicidal effect grade, C: Monochoria vaginalis (Monochoria vaginalis): 3 (Herbicidal ratio of 40% or higher and lower than 70%) | d: soybean, effect on crop grade (soybean): 4 (Herbicidal ratio of 70% or higher and lower than 90%) | N (Amaranthus retroflexus) herbicidal effect grade (Amaranthus retroflexus): 5 (Herbicidal ratio of 90% or more (almost completely withered)) | e: wheat, effect on crop grade (wheat [3]): 5 (Herbicidal ratio of 90% or more (almost completely withered)) | M (Abutilon theophrasti) herbicidal effect grade (Abutilon theophrasti): 5 (Herbicidal ratio of 90% or more (almost completely withered)) | herbicidal effect on E, grade 0-5 (Cyperus difformis): 5 (Herbicidal ratio of 90% or more (almost completely withered))

CON=C(C)CC1CC(OC(=O)C(C)(C)OC(C)=O)=C(c2c(C)cc(C)cc2C)C1=O (stereo not drawn) [1-034]
b (directly sowed rice plant) effect on crop grade (rice): 5 (Herbicidal ratio of 90% or more (almost completely withered)) | J: Alopecurus myosuroides, herbicidal effect grade (Alopecurus myosuroides): 5 (Herbicidal ratio of 90% or more (almost completely withered)) | f: beet, effect on crop grade (beet): 4 (Herbicidal ratio of 70% or higher and lower than 90%) | effect on crop b (directly sowed rice plant), grade 0-5 [1]: 5 (Herbicidal ratio of 90% or more (almost completely withered)) | L (Apera spica-venti) herbicidal effect grade (Apera spica-venti): 5 (Herbicidal ratio of 90% or more (almost completely withered)) | G (Setaria viridis) herbicidal effect grade (Setaria viridis): 5 (Herbicidal ratio of 90% or more (almost completely withered)) | F: Digitaria ciliaris, herbicidal effect grade (Digitaria ciliaris): 5 (Herbicidal ratio of 90% or more (almost completely withered)) | e (wheat) effect on crop grade (wheat [2]): 4 (Herbicidal ratio of 70% or higher and lower than 90%) | I: Avena fatua, herbicidal effect grade (Avena fatua): 5 (Herbicidal ratio of 90% or more (almost completely withered)) | Herbicidal effect grade, C: Monochoria vaginalis (Monochoria vaginalis): 3 (Herbicidal ratio of 40% or higher and lower than 70%) | d: soybean, effect on crop grade (soybean): 4 (Herbicidal ratio of 70% or higher and lower than 90%) | N (Amaranthus retroflexus) herbicidal effect grade (Amaranthus retroflexus): 5 (Herbicidal ratio of 90% or more (almost completely withered)) | e: wheat, effect on crop grade (wheat [3]): 5 (Herbicidal ratio of 90% or more (almost completely withered)) | M (Abutilon theophrasti) herbicidal effect grade (Abutilon theophrasti): 5 (Herbicidal ratio of 90% or more (almost completely withered)) | herbicidal effect on E, grade 0-5 (Cyperus difformis): 5 (Herbicidal ratio of 90% or more (almost completely withered))

CC(CC1CC(O)=C(c2c(C)cc(C)cc2C)C1=O)=NOCC(F)(F)F (stereo not drawn) [1-028]
b (directly sowed rice plant) effect on crop grade (rice): 5 (Herbicidal ratio of 90% or more (almost completely withered)) | J: Alopecurus myosuroides, herbicidal effect grade (Alopecurus myosuroides): 5 (Herbicidal ratio of 90% or more (almost completely withered)) | f: beet, effect on crop grade (beet): 0 (Herbicidal ratio of 5% or lower (almost no effect)) | effect on crop b (directly sowed rice plant), grade 0-5 [1]: 5 (Herbicidal ratio of 90% or more (almost completely withered)) | L (Apera spica-venti) herbicidal effect grade (Apera spica-venti): 5 (Herbicidal ratio of 90% or more (almost completely withered)) | G (Setaria viridis) herbicidal effect grade (Setaria viridis): 5 (Herbicidal ratio of 90% or more (almost completely withered)) | F: Digitaria ciliaris, herbicidal effect grade (Digitaria ciliaris): 5 (Herbicidal ratio of 90% or more (almost completely withered)) | e (wheat) effect on crop grade (wheat [2]): 4 (Herbicidal ratio of 70% or higher and lower than 90%) | I: Avena fatua, herbicidal effect grade (Avena fatua): 4 (Herbicidal ratio of 70% or higher and lower than 90%) | Herbicidal effect grade, C: Monochoria vaginalis (Monochoria vaginalis): 0 (Herbicidal ratio of 5% or lower (almost no effect)) | d: soybean, effect on crop grade (soybean): 2 (Herbicidal ratio of 20% or higher and lower than 40%) | N (Amaranthus retroflexus) herbicidal effect grade (Amaranthus retroflexus): 3 (Herbicidal ratio of 40% or higher and lower than 70%) | e: wheat, effect on crop grade (wheat [3]): 3 (Herbicidal ratio of 40% or higher and lower than 70%) | M (Abutilon theophrasti) herbicidal effect grade (Abutilon theophrasti): 3 (Herbicidal ratio of 40% or higher and lower than 70%) | herbicidal effect on E, grade 0-5 (Cyperus difformis): 5 (Herbicidal ratio of 90% or more (almost completely withered))

CON=CC(C)(C)C1CC(O)=C(c2c(C)cc(C)cc2C)C1=O (stereo not drawn) [1-030]
b (directly sowed rice plant) effect on crop grade (rice): 4 (Herbicidal ratio of 70% or higher and lower than 90%) | J: Alopecurus myosuroides, herbicidal effect grade (Alopecurus myosuroides): 4 (Herbicidal ratio of 70% or higher and lower than 90%) | f: beet, effect on crop grade (beet): 0 (Herbicidal ratio of 5% or lower (almost no effect)) | effect on crop b (directly sowed rice plant), grade 0-5 [1]: 5 (Herbicidal ratio of 90% or more (almost completely withered)) | L (Apera spica-venti) herbicidal effect grade (Apera spica-venti): 3 (Herbicidal ratio of 40% or higher and lower than 70%) | G (Setaria viridis) herbicidal effect grade (Setaria viridis): 2 (Herbicidal ratio of 20% or higher and lower than 40%) | F: Digitaria ciliaris, herbicidal effect grade (Digitaria ciliaris): 4 (Herbicidal ratio of 70% or higher and lower than 90%) | e (wheat) effect on crop grade (wheat [2]): 0 (Herbicidal ratio of 5% or lower (almost no effect)) | I: Avena fatua, herbicidal effect grade (Avena fatua): 3 (Herbicidal ratio of 40% or higher and lower than 70%) | Herbicidal effect grade, C: Monochoria vaginalis (Monochoria vaginalis): 0 (Herbicidal ratio of 5% or lower (almost no effect)) | d: soybean, effect on crop grade (soybean): 0 (Herbicidal ratio of 5% or lower (almost no effect)) | N (Amaranthus retroflexus) herbicidal effect grade (Amaranthus retroflexus): 0 (Herbicidal ratio of 5% or lower (almost no effect)) | e: wheat, effect on crop grade (wheat [3]): 0 (Herbicidal ratio of 5% or lower (almost no effect)) | M (Abutilon theophrasti) herbicidal effect grade (Abutilon theophrasti): 0 (Herbicidal ratio of 5% or lower (almost no effect)) | herbicidal effect on E, grade 0-5 (Cyperus difformis): 3 (Herbicidal ratio of 40% or higher and lower than 70%)
